Assay results taken from the supplement of paper PMC11061612.

Tests used:
GCIY (Gastric Carcinoma) [1] = test: Bliss excess, mean over the matrix (fraction); higher = more synergy
In short: (§1)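 Cell lines grown in DMEM/F12 or RPMI with 10% FBS were plated in 1536-well plates and held 24 hours at 37°C, 5% CO2 before 72 hours of exposure to two-drug dose matrices, with DMSO typically at 0.2%. CellTiter-Glo 2.0 luminescence gave viability, which was converted to inhibition. Vehicle wells were set to 0 and blank wells to 1. Combination Emax is the second-highest inhibition in the matrix, and Bliss excess is the observed combination effect minus the expected EA + EB − EA·EB, where EA and EB are the single-agent effects.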

MG-63 (Osteosarcoma) [2] = test: as above
In short: as §1

[3] = tested on: NCI-H1435 (Non-Small Cell Lung Carcinoma); test: as above
In short: as §1

[4] = tested on: MRK-nu-1 (Breast Carcinoma); test: as above
In short: as §1

[5] = tested on: CAL-85-1 (Breast Carcinoma); test: as above
In short: as §1

[6] = tested on: OVKATE (Ovarian Carcinoma); test: as above
In short: as §1

[7] = tested on: NCI-H2023 (Non-Small Cell Lung Carcinoma); test: as above
In short: as §1

A375 (Melanoma) [8] = test: as above
In short: as §1

SK-MEL-24 (Melanoma) [9] = test: as above
In short: as §1

C32 (Melanoma) [10] = test: as above
In short: as §1

[11] = tested on: NCI-H2009 (Lung Adenocarcinoma); test: as above
In short: as §1

[12] = tested on: BC-1 (B-Cell Non-Hodgkin's Lymphoma); test: as above
In short: as §1

[13] = tested on: KNS-62 (Squamous Cell Lung Carcinoma); test: as above
In short: as §1

[14] = tested on: RPMI-8402 (T-Lymphoblastic Leukemia); test: as above
In short: as §1

[15] = tested on: L-363 (Plasma Cell Myeloma); test: as above
In short: as §1

[16] = tested on: NCI-H835 (Other Solid Carcinomas); test: as above
In short: as §1

[17] = tested on: SW1463 (Colorectal Carcinoma); test: as above
In short: as §1

[18] = tested on: NTERA-2-cl-D1 (Other Solid Carcinomas); test: as above
In short: as §1

[19] = tested on: COR-L105 (Lung Adenocarcinoma); test: as above
In short: as §1

[20] = tested on: NCI-H1648 (Lung Adenocarcinoma); test: as above
In short: as §1

[21] = tested on: SBC-3 (Small Cell Lung Carcinoma); test: as above
In short: as §1

[22] = tested on: MDA-MB-175-VII (Breast Carcinoma); test: as above
In short: as §1

NCI-H2452 (Mesothelioma) [23] = test: as above
In short: as §1

GCIY (Gastric Carcinoma) [24] = test: combination Emax (second highest fraction inhibited in the dose matrix, 72 h); higher = more inhibition; extreme values may be limits of the assay
In short: as §1

MG-63 (Osteosarcoma) [25] = test: as above
In short: as §1

[26] = tested on: NCI-H1435 (Non-Small Cell Lung Carcinoma); test: as above
In short: as §1

[27] = tested on: MRK-nu-1 (Breast Carcinoma); test: as above
In short: as §1

[28] = tested on: CAL-85-1 (Breast Carcinoma); test: as above
In short: as §1

[29] = tested on: OVKATE (Ovarian Carcinoma); test: as above
In short: as §1

[30] = tested on: NCI-H2023 (Non-Small Cell Lung Carcinoma); test: as above
In short: as §1

A375 (Melanoma) [31] = test: as above
In short: as §1

SK-MEL-24 (Melanoma) [32] = test: as above
In short: as §1

C32 (Melanoma) [33] = test: as above
In short: as §1

[34] = tested on: NCI-H2009 (Lung Adenocarcinoma); test: as above
In short: as §1

[35] = tested on: BC-1 (B-Cell Non-Hodgkin's Lymphoma); test: as above
In short: as §1

[36] = tested on: KNS-62 (Squamous Cell Lung Carcinoma); test: as above
In short: as §1

[37] = tested on: RPMI-8402 (T-Lymphoblastic Leukemia); test: as above
In short: as §1

[38] = tested on: L-363 (Plasma Cell Myeloma); test: as above
In short: as §1

[39] = tested on: NCI-H835 (Other Solid Carcinomas); test: as above
In short: as §1

[40] = tested on: SW1463 (Colorectal Carcinoma); test: as above
In short: as §1

[41] = tested on: NTERA-2-cl-D1 (Other Solid Carcinomas); test: as above
In short: as §1

[42] = tested on: COR-L105 (Lung Adenocarcinoma); test: as above
In short: as §1

[43] = tested on: NCI-H1648 (Lung Adenocarcinoma); test: as above
In short: as §1

[44] = tested on: SBC-3 (Small Cell Lung Carcinoma); test: as above
In short: as §1

[45] = tested on: MDA-MB-175-VII (Breast Carcinoma); test: as above
In short: as §1

NCI-H2452 (Mesothelioma) [46] = test: as above
In short: as §1
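Throughout, for Bliss excess, mean over the matrix: after 72 h of two-drug dosing.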

With `CC1(C)CCC(CN2CCN(c3ccc(C(=O)NS(=O)(=O)c4ccc(NCC5CCOCC5)c([N+](=O)[O-])c4)c(Oc4cnc5[nH]ccc5c4)c3)CC2)=C(c2ccc(Cl)cc2)C1` [Venetoclax] + CS(=O)(=O)CCNCc1ccc(-c2ccc3ncnc(Nc4ccc(OCc5cccc(F)c5)c(Cl)c4)c3c2)o1 [Lapatinib] (first compound max 1 µM, 7x7, partner max 10 µM) as the compound, how does the Bliss excess (GCIY (Gastric Carcinoma) [1]) read?
The Bliss excess was -0.0655.

And the Bliss excess (MG-63 (Osteosarcoma) [2])?
The Bliss excess was 0.0029.

What about the Bliss excess [3] of the same compound?
The Bliss excess was 0.0073.

And the Bliss excess [4]?
The Bliss excess was -0.0243.

What about the Bliss excess [5] of the same compound?
Its Bliss excess is -0.044.

And the Bliss excess [6]?
The Bliss excess was -0.035.

What about the Bliss excess [7] of the same compound?
Its Bliss excess is -0.06.

What about the Bliss excess (A375 (Melanoma) [8]) of the same compound?
Its Bliss excess is -0.0207.

And the Bliss excess (SK-MEL-24 (Melanoma) [9])?
Its Bliss excess is -0.0188.

And the Bliss excess (C32 (Melanoma) [10])?
The Bliss excess was -0.0443.

And the Bliss excess [11]?
The Bliss excess was -0.0358.

And the Bliss excess [12]?
Its Bliss excess is 0.022.

And the Bliss excess [13]?
The Bliss excess was -0.0116.

And the Bliss excess [14]?
The Bliss excess was -0.0163.

And the Bliss excess [15]?
Its Bliss excess is -0.0033.

What about the Bliss excess [16] of the same compound?
The Bliss excess was -0.0206.

And the Bliss excess [17]?
Its Bliss excess is 0.0659.

And the Bliss excess [18]?
Its Bliss excess is -0.0618.

And the Bliss excess [19]?
Its Bliss excess is -0.0535.

What about the Bliss excess [20] of the same compound?
Its Bliss excess is 0.04.

What about the Bliss excess [21] of the same compound?
Its Bliss excess is -0.0339.

And the Bliss excess [22]?
The Bliss excess was 0.0085.

What about the Bliss excess (NCI-H2452 (Mesothelioma) [23]) of the same compound?
Its Bliss excess is -0.0546.

And the “combination Emax” value (GCIY (Gastric Carcinoma) [24])?
The value was 0.276.

And the “combination Emax” value (MG-63 (Osteosarcoma) [25])?
Its value is 0.302.

What about the “combination Emax” value [26] of the same compound?
The value was 0.195.

And the “combination Emax” value [27]?
The value was 0.114.

And the “combination Emax” value [28]?
Its value is 0.657.

And the “combination Emax” value [29]?
The value was 0.182.

And the “combination Emax” value [30]?
The value was 0.195.

What about the “combination Emax” value (A375 (Melanoma) [31]) of the same compound?
The value was 0.169.

And the “combination Emax” value (SK-MEL-24 (Melanoma) [32])?
Its value is 0.683.

What about the “combination Emax” value (C32 (Melanoma) [33]) of the same compound?
The value was 0.209.

And the “combination Emax” value [34]?
The value was 0.151.

And the “combination Emax” value [35]?
The value was 0.904.

And the “combination Emax” value [36]?
The value was 0.186.

And the “combination Emax” value [37]?
Its value is 0.839.

And the “combination Emax” value [38]?
Its value is 0.133.

And the “combination Emax” value [39]?
Its value is 0.294.

What about the “combination Emax” value [40] of the same compound?
Its value is 0.4.

And the “combination Emax” value [41]?
Its value is 0.2.

And the “combination Emax” value [42]?
Its value is 0.587.

What about the “combination Emax” value [43] of the same compound?
Its value is 0.624.

And the “combination Emax” value [44]?
The value was 0.183.

And the “combination Emax” value [45]?
The value was 0.937.

And the “combination Emax” value (NCI-H2452 (Mesothelioma) [46])?
Its value is 0.29.

Which Bliss excess (GCIY (Gastric Carcinoma) [1]) does the source give for `N#Cc1cnc(Nc2cc(NC[C@H]3CNCCO3)c(C(F)(F)F)cn2)cn1` [SRA737] + C=CCn1c(=O)c2cnc(Nc3ccc(N4CCN(C)CC4)cc3)nc2n1-c1cccc(C(C)(C)O)n1 [AZD1775] (first compound max 10 µM, partner max 1 µM) here?
Its Bliss excess is 0.033.

What about the Bliss excess (MG-63 (Osteosarcoma) [2]) of the same compound?
The Bliss excess was 0.0974.

What about the Bliss excess [3] of the same compound?
Its Bliss excess is 0.0093.

What about the Bliss excess [4] of the same compound?
Its Bliss excess is 0.0988.

And the Bliss excess [5]?
The Bliss excess was -0.0283.

And the Bliss excess [6]?
Its Bliss excess is -0.0409.

And the Bliss excess [7]?
The Bliss excess was 0.0404.

And the Bliss excess (A375 (Melanoma) [8])?
The Bliss excess was 0.0455.

And the Bliss excess (SK-MEL-24 (Melanoma) [9])?
The Bliss excess was -0.0375.

What about the Bliss excess (C32 (Melanoma) [10]) of the same compound?
Its Bliss excess is 0.0397.

And the Bliss excess [11]?
Its Bliss excess is -0.011.

And the Bliss excess [12]?
The Bliss excess was 0.099.

And the Bliss excess [13]?
The Bliss excess was 0.0171.

And the Bliss excess [14]?
The Bliss excess was 0.0473.

And the Bliss excess [15]?
Its Bliss excess is 0.121.

What about the Bliss excess [16] of the same compound?
Its Bliss excess is 0.01.

And the Bliss excess [17]?
The Bliss excess was 0.0027.

And the Bliss excess [18]?
The Bliss excess was 0.0209.

And the Bliss excess [19]?
The Bliss excess was 0.031.

What about the Bliss excess [20] of the same compound?
Its Bliss excess is -0.0116.

What about the Bliss excess [21] of the same compound?
Its Bliss excess is 0.155.

And the Bliss excess [22]?
Its Bliss excess is -0.0073.

And the Bliss excess (NCI-H2452 (Mesothelioma) [23])?
The Bliss excess was -0.0018.

What about the “combination Emax” value (GCIY (Gastric Carcinoma) [24]) of the same compound?
Its value is 0.611.

What about the “combination Emax” value (MG-63 (Osteosarcoma) [25]) of the same compound?
Its value is 0.867.

What about the “combination Emax” value [26] of the same compound?
The value was 0.267.

What about the “combination Emax” value [27] of the same compound?
Its value is 0.724.

And the “combination Emax” value [28]?
The value was 0.476.

And the “combination Emax” value [29]?
Its value is 0.222.

And the “combination Emax” value [30]?
The value was 0.594.

And the “combination Emax” value (A375 (Melanoma) [31])?
The value was 0.615.

And the “combination Emax” value (SK-MEL-24 (Melanoma) [32])?
The value was 0.46.

What about the “combination Emax” value (C32 (Melanoma) [33]) of the same compound?
The value was 0.581.

What about the “combination Emax” value [34] of the same compound?
Its value is 0.82.

What about the “combination Emax” value [35] of the same compound?
The value was 0.988.

And the “combination Emax” value [36]?
Its value is 0.53.

And the “combination Emax” value [37]?
The value was 1.

And the “combination Emax” value [38]?
Its value is 0.937.

What about the “combination Emax” value [39] of the same compound?
Its value is 0.546.

And the “combination Emax” value [40]?
Its value is 0.629.

What about the “combination Emax” value [41] of the same compound?
Its value is 0.483.

And the “combination Emax” value [42]?
The value was 0.383.

And the “combination Emax” value [43]?
The value was 0.621.

And the “combination Emax” value [44]?
The value was 0.86.

And the “combination Emax” value [45]?
Its value is 0.276.

And the “combination Emax” value (NCI-H2452 (Mesothelioma) [46])?
Its value is 0.722.
